Data: patent US20250295796A1, “CELL PENETRATING POLYPEPTIDES (CPPS) AND THEIR USE IN HUMAN THERAPY” (RDP PHARMA AG, priority 2021, published 2025)
Each block holds one molecule with its values, some of them ahead of it.

Key:
[1] = tested on: HCT116 human colon carcinoma xenograft with null p53 (HCT116 p53−/−); experiment: HCT116 p53-/- xenograft, single agent and combination with cisplatin or vincristine; type: in vivo, female athymic nude mice; details: for % TGD (tumor growth delay) / time to study endpoint (TTE): endpoint tumor volume of 1000 mm^3, CROMOC36 as single agent or in combination; for time to study endpoint (TTE): control Day 23; for tumor growth inhibition: single-agent reference, q7dx5 (CDDP 4 mg/kg, VCR 2 mg/kg)
Protocol: A study was conducted to evaluate the efficacy and tolerability of CROMOC36 against an HCT116 human colon carcinoma xenograft model with null p53 (HCT116 p53−/−) in female athymic nude mice. CROMOC36 was administered subcutaneously (s.c.) three times at intervals of two weeks (q14dx3) as a single agent or in combination with cisplatin (CDDP) at 4 mg/kg or vincristine (VCR) at 2 mg/kg which were both administered five times at intervals of one week (q7dx5). CROMOC36 was tested at 32 mg/kg or using a decreasing dosage of 32-16-16 mg/kg. CDDP and VCR were also administered as single agents to allow comparison of the efficacy of CROMOC36 with commonly used anticancer drugs. The dose and schedule of CDDP and VCR treatments remained the same when tested as single agents or in combination with CROMOC36. […] Efficacy was also evaluated by measuring the tumor growth delay (TGD) and the number of regression responses.

[2] = tested on: murine Lewis lung carcinoma; experiment: Lewis lung carcinoma (LLC) model, primary tumor growth and metastasis
Protocol: The efficacy of CROMOC36 on the Lewis lung carcinoma (LLC) model, was selected for testing the activity of CROMOC36 against primary tumor growth and metastasis formation. CROMOC36 was tested as a single agent and in combination with Cyclophosphamide (CYPP). In addition, single-agent CYPP was used as a reference compound, allowing comparison of the efficacy of CROMOC36 with a commonly used antitumor agent (summarized in FIG. 9).

[3] = tested on: IMR32 human neuroblastoma xenograft; experiment: IMR32 human neuroblastoma xenograft model; type: in vivo, mice; details: single agent, q14dx2; CROMOC36 32 mg/Kg s.c.; doxorubicin 8 mg/kg i.v.
From the text: FIG. 11: IMR32 s.c. implanted. Treatment on xenograft mice with advanced tumors (volume >50 mm^3). Variation in tumor volume expressed as percentage with respect to initial volume (day 0; designated as 100%). Final measurements for vehicle (PBS) and Doxorubicin groups were taken on day 42. For the remaining groups, final measurements were taken on day 63, the termination day of the experiment. Growth reduction compared to controls on day 42 (p<0.01).
The aim of this study was to assess the in vivo efficacy of CROMOC36 on a IMR32 human neuroblastoma xenograft model. CROMOC36 was administered subcutaneously (s.c.) at intervals of two weeks (q14dx2) at two different doses (32 mg/Kg) and also in combination with doxorubicin administered intravenously (i.v.) (32/kg CROMOC36+4+4 mg/Kg doxorubicin, s.c and i.v., q14dx2). Doxorubicin was also used alone as a reference compound (8 mg/kg, i.v., q14dx2). Vehicle was PBS.

[4] = tested on: M5076 ovarian reticulum sarcoma tumor cell line; experiment: M5076 artificial hepatic metastasis model, i.v. route; details: CROMOC36 16 mg/kg i.v. q7dx3; Doxorubicin 6 mg/kg q4dx3 (MTD)
[5] = tested on: Human hepatocellular carcinoma cell lines; experiment: Monolayer assay, human hepatocellular carcinoma cell lines, 96h treatment (geomean of three lines); type: cell-based; details: Homo sapiens; three HCC cell lines, 96h treatment
Protocol: (§1) Monolayer Assay Propidium Iodid (PI). Cells were harvested from exponential phase cultures, counted and depending on the cell line 3.000 to 20.000 cells were plated in 96-well flat-bottom microtiter plates After a 24 h recovery period to allow cells to resume exponential growth, 10 μl of culture medium (four control wells/plate) or culture medium with the test compound were added by a liquid handling robotic system and treatment continued for four days. Compounds were applied in half-log increments at 10 concentrations in duplicate. Three independent experiments were performed. Cells were then washed with 200 μl PBS to remove dead cells followed by addition of 200 μl of a solution containing 7 μg/ml propidium iodide (PI) and 0.1% (v/v) Triton X-100. After an incubation period of 1-2 h at room temperature, fluorescence (FU) was measured using the Cytofluor 4000 microplate reader (excitation λ=530 nm, emission λ=620 nm) to quantify the amount of attached viable cells. Concentrations required for 50% inhibition of cell growth (IC50) were calculated by non-linear regression (log[conc. of inhibitor]versus response (% T/C)) using the analysis software GraphPad Prism®, Prism 5 for windows, version 5.01 (GraphPad Software Inc., CA).
CROMOC36—in vitro activity Human hepatocellular carcinoma cell lines IC50 values of CROMOC36 and Sorafenib, 96h treatment. […] The individual results for CROMOC36 are included in FIG. 24. […] The individual results for Sorafenib are included in (FIG. 24).

HEP3B = experiment: Monolayer assay, 96h treatment, HEP3B; type: cell-based, human; details: Homo sapiens
Protocol: as §1
(§2) CROMOC36—in vitro activity Human hepatocellular carcinoma cell lines IC50 values of CROMOC36 and Sorafenib, 96h treatment. […]

HEPG2 = experiment: Monolayer assay, 96h treatment, HEPG2; type: cell-based, human; details: Homo sapiens; HEPG2, 96h treatment
Protocol: as §1, §2

LIXF 575L = experiment: Monolayer assay, 96h treatment, LIXF 575L; type: cell-based, human; details: Homo sapiens
Protocol: as §1, §2

[6] = tested on: human pancreatic tumor cell lines; experiment: Propidium iodide based monolayer proliferation assay, panel of 13 human pancreatic tumor cell lines; details: Homo sapiens, 96 h; 13 pancreatic cell lines, four days treatment; read-out: geomean IC50
Protocol: as §1
CROMOC36—in vitro activity Human pancreatic carcinoma cell lines. The aim of this study was to investigate the antitumor activity of CROMOC36 in vitro on a panel of 13 human pancreatic tumor cell lines. Antitumor activity was assessed after four days of CROMOC36 treatment using a propidium iodide based monolayer proliferation assay. Up to four experiments were performed in each cell line, testing CROMOC36 at ten concentrations in half-log increments up to 1 μM. Taxol, an antitumor agent commonly used for the treatment of pancreatic cancer, was used as a reference compound and tested in half-log steps up to 0.3 μM.

Osteosarcoma (U2OS) cell = experiment: Monolayer Sulphorhodamine B (SRB) staining assay, 72 hours, preCROMOC-DDM fusion molecules; type: cell-based, human; details: CPP fused to preCROMOC
Protocol: Cells were harvested from exponential phase cultures, and depending on the cell line 10.000 to 30.000 cells were plated in 96-well flat-bottom microtiter plates. After a 24 h recovery period to allow cells to resume exponential growth, supernatant was discarded and 100 μl of culture medium (eight control wells/plate) or culture medium with the test compound were added by a liquid handling robotic system (Microlab® Starlet, Hamilton) and treatment continued for 72 hrs. Compounds were applied at 9 concentrations eight wells/concentration). At least three independent experiments were performed. For SRB staining, cells were fixed with SRB01 for 1h at 4° C. (final concentration of TCA=10%) washed with a plate washer (Hydroflex, Tecan©) for five times with H2O; and stained with 100 μl of SRB02 at room temperature for 10 min following 4 washes in SRB03 and finally 100 μl of developer solution SRB04 for 5 minutes with shaking. Optical density was assessed using a plate-reader (Sunrise, Tecan©) at 540 nm. Concentrations required for 50% inhibition of cell growth (IC50) were calculated by non-linear regression (log[conc. of inhibitor] versus response (% T/C)) using the analysis software GraphPad Prism®, Prism 5 for windows, version 5.01 (GraphPad Software Inc., CA). (SRB Buffers FIG. 25).

[7] = tested on: human colon carcinoma with null p53 (HCT116 p53−/−) xenograft; experiment: HCT116 p53-/- xenograft, CROMOC36 versus nuclease impaired CROMOC60; type: in vivo, mouse; details: s.c. 4 mg/kg on days 0, 1, 2, 3, 6, 7, 8, 9, 10, 20, 22, 24
Protocol: FIG. 7: HCT116 p53−/− human colon carcinoma xenograft. Treatment on advanced tumors (volume >50 mm^3). Dose: CROMOC36 4 mg/kg; CROMOC60 4 mg/kg. Treatment: s.c. administration on day 0, 1, 2, 3, 6, 7, 8, 9, 10, 20, 22, 24.
A study was conducted to test the antitumor efficacy of CROMOC36 on an advanced human colon carcinoma with null p53 (HCT116 p53−/−) xenograft model and compare it to a vehicle or a nuclease impaired version CROMOC60 treatment group. CROMOC60 is no more catalytically active as a nuclease but is able to be transported to the nucleus of a cell. This study was also designed to proof that the active principle of the tumor growth inhibiting activity of CROMOC is the nuclease activity in vivo. CROMOC36 and CROMOC60 were both administered subcutaneously (s.c.) at 4 mg/kg dose on the days 0, 1, 2, 3, 6, 7, 8, 9, 10, 20, 22, 24. […] This also proofs that CROMOC36 can serve as a valid DNA DSB reagent.

Molecule: [NH2][Pt]([NH2])([Cl])[Cl] [CDDP, cisplatin, reference compound]
% TGD (tumor growth delay) [1]: 48%
time to study endpoint (TTE) [1]: 34 days
tumor growth inhibition [1]: 47.2%

Molecule: O=P1(N(CCCl)CCCl)NCCCO1 (centres unmarked) [CYPP, Cyclophosphamide, reference compound]
inhibition of number of metastases ([2]; CYPP single agent, 180 mg/kg): 62%
tumor growth inhibition (TI), primary tumor ([2]; single agent, CROMOC36 s.c. q2dx5): 78.6%

Molecule: COc1cccc2c1C(=O)c1c(O)c3c(c(O)c1C2=O)C[C@@](O)(C(=O)CO)C[C@@H]3O[C@H]1C[C@H](N)[C@H](O)[C@H](C)O1 [Doxorubicin, reference compound]
tumor growth inhibition (TGI) compared to controls [3]: 10%
% ILS (mean survival time versus control group) [4]: 32%

IC50 [5]: 4.68 µM
IC50 (HEP3B): 2.83 µM
IC50 (HEPG2): 5.97 µM
IC50 (LIXF 575L): 6.07 µM
Molecule: CNC(=O)c1cc(Oc2ccc(NC(=O)Nc3ccc(Cl)c(C(F)(F)F)c3)cc2)ccn1 [Sorafenib, reference compound]

IC50 [6]: 0.00199 µM
Molecule: CC(=O)O[C@H]1C(=O)[C@@]2(C)[C@H]([C@H](OC(=O)c3ccccc3)[C@]3(O)C[C@H](OC(=O)[C@H](O)[C@@H](NC(=O)c4ccccc4)c4ccccc4)C(C)=C1C3(C)C)[C@]1(OC(C)=O)CO[C@@H]1C[C@@H]2O [Taxol, reference compound]

Molecule: CC[C@]1(O)C[C@H]2CN(CCc3c([nH]c4ccccc34)[C@@](C(=O)OC)(c3cc4c(cc3OC)N(C=O)[C@H]3[C@@](O)(C(=O)OC)[C@H](OC(C)=O)[C@]5(CC)C=CCN6CC[C@]43[C@@H]65)C2)C1 [VCR, vincristine, reference compound]
% TGD (tumor growth delay) [1]: 52%
time to study endpoint (TTE) [1]: 35 days
tumor growth inhibition [1]: 45.4%

Molecule: GNSGSGKKKKKGKGSGLGSGKKKDPLGSGLGSGKKKKKGKGSGLGSGKKKDPLGST (peptide, DDM36)
activity in the SRB assay compared with TAT, Pentratin, and Transportan (Osteosarcoma (U2OS) cell): orders of magnitude higher activity

B1: CROMOC60: nuclease impaired version; no more catalytically active as a nuclease but able to be transported to the nucleus (protein)
chain: MSHPDLNKLLELWPHIQEYQDLALKHGINDIFQDNGGKLLQVLLITGLTVLPGREGNDAVDNAGQEYELKSINIDLTAGFSTHHHMNPVIIAKYRQVPWIFAIYRGIAIEAIYRLEPKDLEFYYDKWERKWYSDGHKDINNPKIPVKYVMEHGTKIYGSGGSGGSSHPDLNKLLELWPHIQEYQDLALKHGINDIFQDNGGKLLQVLLITGLTVLPGREGNDAVDNAGQEYELKSINIDLTAGFSTHHHMNPVIIAKYRQVPWIFAIYRGIAIEAIYRLEPKDLEFYYDKWERKWYSDGHKDINNPKIPVKYVMEHGTKIYGNSGSGKKKKKGKGSGLGSGKKKDPLGSGLGSGKKKKKGKGSGLGSGKKKDPLGST
modifications: peptide, CROMOC60
progression of HCT116 p53−/− human colon carcinoma as compared to vehicle control [7]: not
